Measurements published in US7799785B2, “Substituted tetracyclic tetahydrofuran, pyrrolidine and tetrahydrothiophene derivatives” (Janssen Pharmaceutica NV, priority 2004, dated 2010).

Target: T1, NET (Rattus norvegicus, UniProt Q63380)
T1 construct: Cortex from rat brain was collected and homogenised; from tissue; host or cells: rat brain cortex homogenate/membranes
Assay: In vitro determination of NET reuptake inhibition ([3H]Nixosetine binding, rat brain cortex membranes)
Method: In vitro Determination of NET Reuptake Inhibition
Cortex from rat brain was collected and homogenised using an Ultra-Turrax T25 and a Dual homogeniser in ice-cold homogenising buffer containing Tris, NaCl and KCl (50 mM, 120 mM and 5 mM, respectively, pH 7.4) prior to dilution to an appropriate protein concentration optimised for specific and non-specific binding. […] Membrane-bound activity was detected by filtration through a Packard Filtermate harvester onto GF/B Unifilterplates, washed with ice-cold Tris-HCl buffer, containing NaCl and KCl (50 mM, 120 mM and 4 mM; pH 7.4; 6×0.5 ml). Filters were allowed to dry for 24 h before adding scintillation fluid. Scintillation fluid was allowed to saturate filters for 24 h before counting in a Topcount scintillation counter. Percentage specific bound and competition binding curves were calculated using S-Plus software (Insightful).

T1 sequence (Q63380 1-617): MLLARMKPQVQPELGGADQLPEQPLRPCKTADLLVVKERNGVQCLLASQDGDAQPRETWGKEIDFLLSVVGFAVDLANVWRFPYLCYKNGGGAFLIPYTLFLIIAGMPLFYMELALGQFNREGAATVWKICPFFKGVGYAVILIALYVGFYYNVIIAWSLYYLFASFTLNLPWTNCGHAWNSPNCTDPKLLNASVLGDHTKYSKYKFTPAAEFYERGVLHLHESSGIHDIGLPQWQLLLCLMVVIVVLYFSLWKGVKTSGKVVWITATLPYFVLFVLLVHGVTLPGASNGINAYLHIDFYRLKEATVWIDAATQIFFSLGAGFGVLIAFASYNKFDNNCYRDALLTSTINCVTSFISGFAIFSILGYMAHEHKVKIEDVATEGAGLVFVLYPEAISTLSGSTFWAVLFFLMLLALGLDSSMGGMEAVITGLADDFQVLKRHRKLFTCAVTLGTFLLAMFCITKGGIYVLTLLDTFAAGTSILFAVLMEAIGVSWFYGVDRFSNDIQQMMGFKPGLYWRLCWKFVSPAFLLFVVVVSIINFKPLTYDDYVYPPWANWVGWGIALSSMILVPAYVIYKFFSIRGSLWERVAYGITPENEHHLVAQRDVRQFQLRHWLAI

Structure (SMILES) | IC50 [µM] | NET Reuptake Inhibition
CN(C)CC1CO[C@H]2c3cc(F)ccc3Cc3ccccc3[C@@H]12 (mixture of isomers) [compound 48, [(3aR,12bR)-11-fluoro-3,3a,8,12b-tetrahydro-2H-dibenzo[3,4:6,7]cyclohepta[1,2-b]furan-3-yl]-N,N-dimethylmethanamine] | 0.224 | –
Fc1ccc2c(c1)[C@H]1N[C@@H](CN3CCOCC3)C[C@@H]1c1ccccc1C2 [compound 42, (2R,3aR,12bS)-11-fluoro-2-(4-morpholinylmethyl)-1,2,3,3a,8,12b-hexahydrodibenzo[3,4:6,7]cyclohepta[1,2-b]pyrrole] | 5.5 | –
COCCN1[C@@H](CN(C)C)C[C@@H]2c3ccccc3Cc3ccc(F)cc3[C@H]21 [compound 40, [(2R,3aR,12bS)-11-Fluoro-1-(2-methoxyethyl)-1,2,3,3a,8,12b-hexahydrodibenzo-[3,4:6,7]-cyclohepta[1,2-b]pyrrol-2-yl]-N,N-dimethylmethanamine] | 0.479 | –
COC(=O)N1[C@@H](CN(C)C)CC[C@@H]2c3ccccc3Cc3ccc(F)cc3[C@H]21 [compound 45, Methyl(2R,4aR,13bS)-2-[(dimethylamino)methyl]-12-fluoro-2,3,4,4a,9,13b-hexahydro-1H-dibenzo[3,4:6,7]cyclohepta[1,2-b]pyridine-1-carboxylate] | 0.794 | –
O=C1NC[C@@H]2C[C@@H]3c4ccccc4Cc4ccc(F)cc4[C@H]3N12 [compound 15, (4aS,13bR,14aS)-6-fluoro-1,4a,9,13b,14,14a-hexahydrodibenzo[3′,4′:6′,7′]-cyclohepta[1′,2′:4,5]pyrrolo[1,2-c]imidazol-3(2H)-one] | 2.4 | –
CC(=O)N1[C@@H](CN(C)C)C[C@@H]2c3ccccc3Cc3ccc(F)cc3[C@H]21 [36b, [(2R,3aR,12bS)-1-acetyl-11-fluoro-1,2,3,3a,8,12b-hexahydrodibenzo[3,4:6,7]-cyclohepta[1,2-b]pyrrol-2-yl]-N,N-dimethylmethanamine] | 3.89 | –
CN1C[C@H]2C[C@@H]3c4ccccc4Cc4ccc(F)cc4[C@H]3N2C1=O [compound 7, (4aS,13bR,14aR)-6-fluoro-2-methyl-1,4a,9,13b,14,14a-hexahydrodibenzo-[3′,4′:6′,7′]cyclohepta[1′,2′:4,5]pyrrolo[1,2-c]imidazol-3(2H)-one] | 0.891 | –
OC1CCN(C[C@H]2C[C@@H]3c4ccccc4Oc4ccc(F)cc4[C@H]3N2)C1 (stereo partly drawn) [compound 20, 1-{[(2R,3aR,12bS)-11-fluoro-2,3,3a,12b-tetrahydro-1H-dibenzo[2,3:6,7]oxepino-[4,5-b]pyrrol-2-yl]methyl}-3-pyrrolidinol] | 0.417 | –
O=C1CNC[C@H]2C[C@@H]3c4ccccc4Cc4ccc(F)cc4[C@H]3N12 [compound 12, (5aS,14bR,15aR)-7-fluoro-1,2,3,5a,10,14b,15,15a-octahydro-4H-dibenzo[3′,4′:6′,7′]cyclohepta[1′,2′:4,5]pyrrolo[1,2-a]pyrazin-4-one] | 3.47 | –
CN(C)[C@@H]1CO[C@H]2c3cc(F)ccc3Cc3ccccc3[C@H]2C1 [compound 32, (3S,4aR,13bR)-12-fluoro-N,N-dimethyl-2,3,4,4a,9,13b-hexahydrodibenzo[3,4:6,7]-cyclohepta[1,2-b]pyran-3-amine] | 0.0195 | –
CN1CC(=O)N2[C@H](C[C@@H]3c4ccccc4Cc4ccc(F)cc4[C@H]32)C1 [compound 13, (5aS,14bR,15aR)-7-fluoro-2-methyl-1,2,3,5a,10,14b,15,15a-octahydro-4H-dibenzo-[3′,4′:6′,7′]cyclohepta[1′,2′:4,5]pyrrolo[1,2-a]pyrazin-4-one] | – | <5
CN(C)CC1CO[C@@H]2c3cc(F)ccc3Cc3ccccc3[C@@H]12 (mixture of isomers) [compound 47, [(3aR,12bS)-11-fluoro-3,3a,8,12b-tetrahydro-2H-dibenzo[3,4:6,7]cyclohepta[1,2-b]furan-3-yl]-N,N-dimethylmethanamine] | 0.011 | –
CN(C)C[C@H]1C[C@@H]2c3ccccc3Cc3ccc(F)cc3[C@H]2S1 [compound 23, [(2R,3aR,12bS)-11-fluoro-3,3a,8,12b-tetrahydro-2H-dibenzo[3,4:6,7]cyclohepta-[1,2-b]thien-2-yl]-N,N-dimethylmethanamine] | 0.0282 | –
OCCN1CCN(C[C@H]2C[C@@H]3c4ccccc4Cc4ccc(F)cc4[C@H]3N2)CC1 [43a, 2-(4-{[(2R,3aR,12bS)-11-fluoro-1,2,3,3a,8,12b-hexahydrodibenzo[3,4:6,7]-cyclohepta[1,2-b]pyrrol-2-yl]methyl}-1-piperazinyl)ethanol] | > 10 | –
CN(C)C[C@H]1C[C@@H]2c3ccccc3Oc3ccc(F)cc3[C@H]2N1 [compound 17, [(2R,3aR,12bS)-11-fluoro-2,3,3a,12b-tetrahydro-1H-dibenzo[2,3:6,7]oxepino[4,5-b]pyrrol-2-yl]-N,N-dimethylmethanamine] | 0.00741 | –
CN(C)C[C@H]1C[C@@H]2c3ccccc3Cc3ccc(F)cc3[C@H]2N1C [compound 5, [(2R,3aR,12bS)-11-fluoro-1-methyl-1,2,3,3a,8,12b-hexahydrodibenzo[3,4:6,7]-cyclohepta[1,2-b]pyrrol-2-yl]-N,N-dimethylmethanamine] | 0.288 | –
COCC(=O)N1[C@@H](CN(C)C)C[C@@H]2c3ccccc3Cc3ccc(F)cc3[C@H]21 [compound 10, [(2R,3aR,12bS)-11-fluoro-1-(methoxyacetyl)-1,2,3,3a,8,12b-hexahydrodibenzo-[3,4:6,7]cyclohepta[1,2-b]pyrrol-2-yl]-N,N-dimethylmethanamine] | 4.79 | –
CNC[C@H]1C[C@@H]2c3ccccc3Cc3ccc(F)cc3[C@H]2N1C=O [compound 38, (2R,3aR,12bS)-11-fluoro-2-[(methylamino)methyll]-3,3a,8,12b-tetrahydrodibenzo-[3,4: 6,7]-cyclohepta[1,2-b]pyrrole-1(2H)-carbaldehyde] | 0.49 | –
OCCN1CCN(C[C@H]2C[C@@H]3c4ccccc4Oc4ccc(F)cc4[C@H]3N2)CC1 [compound 19, 2-(4-{[(2R,3aR,12bS)-11-fluoro-2,3,3a,12b-tetrahydro-1H-dibenzo[2,3:6,7]-oxepino[4,5-b]pyrrol-2-yl]methyl}-1-piperazinyl)ethanol] | > 10 | –
CN(C)C[C@@H]1C[C@@H]2c3ccccc3Cc3ccc(F)cc3[C@H]2[S@@+]1[O-] [compound 26, [(2S,3aR,12bS)-11-fluoro-1-oxido-3,3a,8,12b-tetrahydro-2H-dibenzo[3,4:6,7]-cyclohepta[1,2-b]thien-2-yl]-N,N-dimethylmethanamine] | > 10 | –
Fc1ccc2c(c1)[C@@H]1[C@H](C[C@H]3CNC(=S)N31)c1ccccc1C2 [compound 3, (4aS,13bR,14aS)-6-fluoro-1,4a,9,13b,14,14a-hexahydrodibenzo[3′,4′:6′,7′]cycloheta[1′,2′:4,5]pyrrolo[1,2-c]imidazole-3(2H)-thione] | – | 5.24
CNC[C@H]1CC[C@@H]2c3ccccc3Cc3ccc(F)cc3[C@H]2O1 [compound 46, [(2R,4aR,13bS)-12-fluoro-2,3,4,4a,9,13b-hexahydrodibenzo[3,4:6,7]cyclohepta-[1,2-b]pyran-2-yl]-N-methylmethanamine] | 0.398 | –
CN1CC(=O)N2[C@@H](C[C@@H]3c4ccccc4Cc4ccc(F)cc4[C@H]32)C1 [compound 4, (5aS,14bR,15aS)-7-fluoro-2-methyl-1,2,3,5a,10,14b,15,15a-octahydro-4H-dibenzo[3′,4′:6′,7′]cyclohepta[1′,2′:4,5]pyrrolo[1,2-a]pyrazin-4-one] | – | <5
CN(C)C[C@H]1C[C@@H]2c3ccccc3Cc3ccc(F)cc3[C@H]2N1 [37a, [(2R,3aR,12bS)-11-fluoro-1,2,3,3a,8,12b-hexahydrodibenzo[3,4:6,7]cyclohepta-[1,2-b]pyr-rol-2-yl]-N,N-dimethylmethanamine] | 0.00794 | –
CSC1=NC[C@H]2C[C@@H]3c4ccccc4Cc4ccc(F)cc4[C@H]3N12 [compound 9, (4aS,13bR,14aR)-6-fluoro-3-(methylsulfanyl)-1,4a,9,13b,14,14a-hexahydrodibenzo[3′,4′:6′,7′]cyclohepta[1′,2′:4,5]pyrrolo[1,2-c]imidazole] | 3.98 | –
CN1C[C@@H]2C[C@@H]3c4ccccc4Cc4ccc(F)cc4[C@H]3N2C1=O [compound 16, (4aS,13bR,14aS)-6-fluoro-2-methyl-1,4a,9,13b,14,14a-hexahydrodibenzo-[3′,4′:6′,7′]cyclohepta[1′,2′:4,5]pyrrolo[1,2-c]imidazol-3(2H)-one] | > 10 | –
CN(C)C[C@@H]1C[C@@H]2c3ccccc3Cc3ccc(F)cc3[C@H]2S1(=O)=O [compound 22, [(2S,3aR,12bS)-11-fluoro-1,1-dioxido-3,3a,8,12b-tetrahydro-2H-dibenzo[3,4:6,7]-cyclohepta[1,2-b]thien-2-yl]-N,N-dimethylmethanamine] | 4.79 | –
CN(C)C[C@H]1C[C@@H]2c3ccccc3Cc3ccc(F)cc3[C@H]2N1CCO [compound 39, 2-((2R,3aR,12bS)-2-[(dimethylamino)methyl]-11-fluoro-3,3a,8,12b-tetrahydrodibenzo[3,4:6,7]cyclohepta[1,2-b]pyrrol-1(2H)-yl)ethanol] | 0.126 | –
CN1C[C@@H]2C[C@@H]3c4ccccc4Cc4ccc(F)cc4[C@H]3N2C1 [compound 1, (4aS,13bR,14aS)-6-fluoro-2-methyl-1,2,3,4a,9,13b,14,14a-octahydrodibenzo-[3′,4′:6′,7′]cyclohepta[1′,2′:4,5]pyrrolo[1,2-c]imidazole] | 0.115 | –

System: not given
Assay: not given

Structure (SMILES) | melting point [°C]
CN1CC(=O)N2[C@H](C[C@@H]3c4ccccc4Cc4ccc(F)cc4[C@H]32)C1 [compound 13, (5aS,14bR,15aR)-7-fluoro-2-methyl-1,2,3,5a,10,14b,15,15a-octahydro-4H-dibenzo-[3′,4′:6′,7′]cyclohepta[1′,2′:4,5]pyrrolo[1,2-a]pyrazin-4-one] | 139 to 141
O=C1CO[C@H]2c3cc(F)ccc3Cc3ccccc3[C@H]2C1 [compound 31, (4aR,13bR)-12-fluoro-4,4a,9,13b-tetrahydrodibenzo[3,4:6,7]cyclohepta[1,2-b]-pyran-3(2H)-one] | 146 to 148
